Test results taken from the kinase profiling compilation of Christmann-Franck et al. (2016).

How the values were obtained:
Assay in all cases: radiometric filter-binding kinase assay, Kinase HotSpot
Details in all cases: compound 0.5 µM; ATP 10 µM
[1] = target: AKT2 (human) (UniProt P31751)
[2] = target: BRSK2 (human) (UniProt Q8IWQ3)
[3] = target: CDK1 CCNA2 (human) (UniProt P06493+P20248)
[4] = target: CHUK (human) (UniProt O15111)
[5] = target: CLK4 (human) (UniProt Q9HAZ1)
[6] = target: CSNK1G3 (human) (UniProt Q9Y6M4)
[7] = target: CSNK2A2 (human) (UniProt P19784)
[8] = target: DAPK1 (human) (UniProt P53355)
[9] = target: DDR2 (human) (UniProt Q16832)
[10] = target: DMPK (human) (UniProt Q09013)
[11] = target: DYRK3 (human) (UniProt O43781)
[12] = target: EGFR (human) (UniProt P00533)
[13] = target: EPHA1 (human) (UniProt P21709)
[14] = target: EPHA3 (human) (UniProt P29320)
[15] = target: EPHB4 (human) (UniProt P54760)
[16] = target: GSK3B (human) (UniProt P49841)
[17] = target: HIPK2 (human) (UniProt Q9H2X6)
[18] = target: IKBKB (human) (UniProt O14920)
[19] = target: IKBKE (human) (UniProt Q14164)
[20] = target: KIT (human) (UniProt P10721)
[21] = target: MAP3K10 (human) (UniProt Q02779)
[22] = target: MAPK9 (human) (UniProt P45984)
[23] = target: MAPKAPK2 (human) (UniProt P49137)
[24] = target: MARK4 (human) (UniProt Q96L34)
[25] = target: MERTK (human) (UniProt Q12866)
[26] = target: MET (human) (UniProt P08581)
[27] = target: MST1R (human) (UniProt Q04912)
[28] = target: NEK11 (human) (UniProt Q8NG66)
[29] = target: NEK4 (human) (UniProt P51957)
[30] = target: NTRK1 (human) (UniProt P04629)
[31] = target: PAK1 (human) (UniProt Q13153)
[32] = target: PAK2 (human) (UniProt Q13177)
[33] = target: PAK6 (human) (UniProt Q9NQU5)
[34] = target: RAF1 (human) (UniProt P04049)
[35] = target: ROCK1 (human) (UniProt Q13464)
[36] = target: SGK2 (human) (UniProt Q9HBY8)
[37] = target: SYK (human) (UniProt P43405)
[38] = target: TEK (human) (UniProt Q02763)
[39] = target: TGFBR1 (human) (UniProt P36897)
[40] = target: TYK2 JH1 catalytic (human) (UniProt P29597)
[41] = target: WNK3 (human) (UniProt Q9BYP7)
[42] = target: ZAP70 (human) (UniProt P43403)

Sequence of TEK (human) (Q02763 whole entry, looked up): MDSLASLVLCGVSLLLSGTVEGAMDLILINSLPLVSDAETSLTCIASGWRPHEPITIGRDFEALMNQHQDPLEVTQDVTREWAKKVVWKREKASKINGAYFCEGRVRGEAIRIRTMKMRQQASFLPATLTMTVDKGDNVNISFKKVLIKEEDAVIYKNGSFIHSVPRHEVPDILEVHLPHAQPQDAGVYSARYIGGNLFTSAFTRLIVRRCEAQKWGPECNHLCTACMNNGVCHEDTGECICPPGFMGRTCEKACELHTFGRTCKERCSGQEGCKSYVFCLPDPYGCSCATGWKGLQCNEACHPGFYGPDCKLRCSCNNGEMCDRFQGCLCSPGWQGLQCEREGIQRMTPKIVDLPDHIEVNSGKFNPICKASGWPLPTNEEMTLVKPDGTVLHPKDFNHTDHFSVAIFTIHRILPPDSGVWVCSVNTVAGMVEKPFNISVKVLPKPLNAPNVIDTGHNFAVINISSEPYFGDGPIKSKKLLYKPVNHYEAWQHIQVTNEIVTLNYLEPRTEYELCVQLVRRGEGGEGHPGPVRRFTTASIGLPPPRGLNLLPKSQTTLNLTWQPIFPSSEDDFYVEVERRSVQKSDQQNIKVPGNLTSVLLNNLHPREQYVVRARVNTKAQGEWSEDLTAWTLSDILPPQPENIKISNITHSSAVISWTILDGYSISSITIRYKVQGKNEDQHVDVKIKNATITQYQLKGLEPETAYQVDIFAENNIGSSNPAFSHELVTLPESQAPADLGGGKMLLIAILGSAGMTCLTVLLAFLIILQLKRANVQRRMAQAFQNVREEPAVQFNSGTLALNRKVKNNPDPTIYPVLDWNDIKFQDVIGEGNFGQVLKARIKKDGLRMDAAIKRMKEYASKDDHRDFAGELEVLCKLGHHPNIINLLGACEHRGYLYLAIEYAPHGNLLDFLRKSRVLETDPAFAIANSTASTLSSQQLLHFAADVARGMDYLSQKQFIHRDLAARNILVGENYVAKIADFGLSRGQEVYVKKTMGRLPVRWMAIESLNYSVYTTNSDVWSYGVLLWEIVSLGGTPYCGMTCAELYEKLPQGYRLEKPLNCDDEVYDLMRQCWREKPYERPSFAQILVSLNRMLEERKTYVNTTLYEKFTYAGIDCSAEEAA
Sequence of CSNK1G3 (human) (Q9Y6M4 whole entry, looked up): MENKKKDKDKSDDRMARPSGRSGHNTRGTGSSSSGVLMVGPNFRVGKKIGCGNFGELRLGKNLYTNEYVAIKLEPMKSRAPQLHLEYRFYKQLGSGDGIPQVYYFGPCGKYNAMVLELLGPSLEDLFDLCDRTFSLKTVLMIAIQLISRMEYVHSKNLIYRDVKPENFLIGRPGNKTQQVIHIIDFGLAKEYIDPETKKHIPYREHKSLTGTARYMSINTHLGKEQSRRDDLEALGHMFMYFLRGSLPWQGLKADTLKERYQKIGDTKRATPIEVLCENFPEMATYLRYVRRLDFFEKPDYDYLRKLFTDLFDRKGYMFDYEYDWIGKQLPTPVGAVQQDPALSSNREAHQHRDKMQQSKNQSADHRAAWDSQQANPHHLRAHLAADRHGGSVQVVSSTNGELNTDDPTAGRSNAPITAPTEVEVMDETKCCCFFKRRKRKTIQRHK
Sequence of MAPKAPK2 (human) (P49137 whole entry, looked up): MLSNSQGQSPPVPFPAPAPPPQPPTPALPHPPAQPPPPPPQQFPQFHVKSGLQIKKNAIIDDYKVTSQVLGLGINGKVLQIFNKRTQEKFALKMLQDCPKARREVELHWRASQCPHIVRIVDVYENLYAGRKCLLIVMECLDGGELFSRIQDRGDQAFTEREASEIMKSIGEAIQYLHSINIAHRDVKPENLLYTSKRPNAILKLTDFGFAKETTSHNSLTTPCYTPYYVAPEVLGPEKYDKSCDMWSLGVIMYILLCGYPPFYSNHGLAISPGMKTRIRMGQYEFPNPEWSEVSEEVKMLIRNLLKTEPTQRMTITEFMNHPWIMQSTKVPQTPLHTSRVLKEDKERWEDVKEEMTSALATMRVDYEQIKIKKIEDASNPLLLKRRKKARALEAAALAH
Sequence of DMPK (human) (Q09013 whole entry, looked up): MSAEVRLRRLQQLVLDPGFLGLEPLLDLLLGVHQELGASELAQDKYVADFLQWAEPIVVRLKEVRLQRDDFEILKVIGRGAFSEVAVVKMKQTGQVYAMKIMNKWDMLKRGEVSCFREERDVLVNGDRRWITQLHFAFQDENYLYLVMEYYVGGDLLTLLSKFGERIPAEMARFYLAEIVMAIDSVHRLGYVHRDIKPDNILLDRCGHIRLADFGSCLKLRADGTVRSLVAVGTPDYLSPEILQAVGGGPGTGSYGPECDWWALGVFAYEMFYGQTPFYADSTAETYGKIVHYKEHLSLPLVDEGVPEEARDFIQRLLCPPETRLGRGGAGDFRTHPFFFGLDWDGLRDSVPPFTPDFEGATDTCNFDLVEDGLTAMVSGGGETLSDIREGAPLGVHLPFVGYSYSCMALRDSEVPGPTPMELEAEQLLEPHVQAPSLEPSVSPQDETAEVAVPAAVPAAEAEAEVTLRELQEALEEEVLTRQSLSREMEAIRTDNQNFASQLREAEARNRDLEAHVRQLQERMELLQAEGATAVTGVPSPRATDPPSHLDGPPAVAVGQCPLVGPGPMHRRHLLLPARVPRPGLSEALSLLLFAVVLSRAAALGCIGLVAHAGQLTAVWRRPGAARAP
Sequence of EPHB4 (human) (P54760 whole entry, looked up): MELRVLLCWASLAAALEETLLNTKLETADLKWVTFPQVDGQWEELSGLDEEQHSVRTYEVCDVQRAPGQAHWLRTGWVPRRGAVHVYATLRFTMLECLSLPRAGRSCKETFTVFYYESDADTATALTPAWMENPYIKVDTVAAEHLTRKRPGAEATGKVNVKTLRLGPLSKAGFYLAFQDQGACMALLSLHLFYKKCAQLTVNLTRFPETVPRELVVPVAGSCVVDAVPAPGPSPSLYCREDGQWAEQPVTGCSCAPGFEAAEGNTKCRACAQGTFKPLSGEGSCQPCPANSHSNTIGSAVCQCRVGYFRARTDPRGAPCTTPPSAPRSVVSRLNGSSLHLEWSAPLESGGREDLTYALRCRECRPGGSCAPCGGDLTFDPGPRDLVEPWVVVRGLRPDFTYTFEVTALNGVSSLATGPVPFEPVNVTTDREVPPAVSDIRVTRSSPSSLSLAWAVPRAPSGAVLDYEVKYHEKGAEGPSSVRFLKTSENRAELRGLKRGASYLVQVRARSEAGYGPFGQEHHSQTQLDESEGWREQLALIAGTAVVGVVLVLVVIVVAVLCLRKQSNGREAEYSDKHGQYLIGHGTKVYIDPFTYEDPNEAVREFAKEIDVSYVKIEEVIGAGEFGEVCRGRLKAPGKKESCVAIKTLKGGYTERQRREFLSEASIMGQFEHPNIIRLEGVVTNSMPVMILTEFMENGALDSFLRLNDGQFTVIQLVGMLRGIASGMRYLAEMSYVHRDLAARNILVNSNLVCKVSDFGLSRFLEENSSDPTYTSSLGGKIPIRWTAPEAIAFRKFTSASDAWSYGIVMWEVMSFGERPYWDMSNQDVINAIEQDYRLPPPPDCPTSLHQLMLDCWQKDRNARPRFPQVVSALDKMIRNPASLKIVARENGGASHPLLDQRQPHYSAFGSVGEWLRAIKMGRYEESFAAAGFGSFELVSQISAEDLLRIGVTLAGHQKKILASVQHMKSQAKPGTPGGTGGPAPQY
Sequence of PAK6 (human) (Q9NQU5 whole entry, looked up): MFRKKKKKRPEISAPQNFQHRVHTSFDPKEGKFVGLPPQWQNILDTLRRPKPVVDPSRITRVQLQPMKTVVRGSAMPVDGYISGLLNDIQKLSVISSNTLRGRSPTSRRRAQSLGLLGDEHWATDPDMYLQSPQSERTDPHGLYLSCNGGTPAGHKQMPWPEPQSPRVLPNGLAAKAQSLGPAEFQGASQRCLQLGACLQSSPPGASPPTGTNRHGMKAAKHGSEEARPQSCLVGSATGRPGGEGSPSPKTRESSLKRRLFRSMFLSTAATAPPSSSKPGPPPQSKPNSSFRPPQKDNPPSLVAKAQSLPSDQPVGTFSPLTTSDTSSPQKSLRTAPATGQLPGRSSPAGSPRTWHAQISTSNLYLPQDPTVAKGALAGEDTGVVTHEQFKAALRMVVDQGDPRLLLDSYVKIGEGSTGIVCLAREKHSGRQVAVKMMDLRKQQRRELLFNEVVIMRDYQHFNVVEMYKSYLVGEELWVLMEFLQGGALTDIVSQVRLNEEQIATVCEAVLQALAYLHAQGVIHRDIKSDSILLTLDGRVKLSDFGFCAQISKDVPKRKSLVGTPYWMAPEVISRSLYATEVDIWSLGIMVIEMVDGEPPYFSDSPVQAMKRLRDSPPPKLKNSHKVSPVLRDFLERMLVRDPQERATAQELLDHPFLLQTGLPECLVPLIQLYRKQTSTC
Sequence of CLK4 (human) (Q9HAZ1 whole entry, looked up): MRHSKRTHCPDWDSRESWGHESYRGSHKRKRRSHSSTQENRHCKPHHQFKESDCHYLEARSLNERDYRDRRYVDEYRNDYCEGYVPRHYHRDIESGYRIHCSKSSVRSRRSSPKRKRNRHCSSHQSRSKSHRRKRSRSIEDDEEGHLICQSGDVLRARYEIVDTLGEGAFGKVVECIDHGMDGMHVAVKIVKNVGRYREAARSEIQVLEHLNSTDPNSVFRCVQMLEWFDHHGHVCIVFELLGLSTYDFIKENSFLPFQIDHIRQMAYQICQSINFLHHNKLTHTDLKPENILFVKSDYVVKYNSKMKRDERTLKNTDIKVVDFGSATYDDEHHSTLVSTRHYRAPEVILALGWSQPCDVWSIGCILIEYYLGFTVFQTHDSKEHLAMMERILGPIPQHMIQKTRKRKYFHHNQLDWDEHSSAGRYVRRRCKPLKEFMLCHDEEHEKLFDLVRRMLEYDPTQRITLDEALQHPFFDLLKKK

## O=C1NC(=O)/C(=C/c2ccc3c(c2)OC(F)(F)O3)S1
[1]
  residual activity: 96.2%
[2]
  residual activity: 90.9%
[3]
  residual activity: 97.2%
[4]
  residual activity: 88.4%
[5]
  residual activity: 88.8%
[6]
  residual activity: 91.4%
[7]
  residual activity: 29.9%
[8]
  residual activity: 120%
[9]
  residual activity: 90.1%
[10]
  residual activity: 97.5%
[11]
  residual activity: 100%
[12]
  residual activity: 85.1%
[13]
  residual activity: 90.2%
[14]
  residual activity: 97.6%
[15]
  residual activity: 100%
[16]
  residual activity: 92.3%
[17]
  residual activity: 104%
[18]
  residual activity: 96.1%
[19]
  residual activity: 101%
[20]
  residual activity: 93.4%
[21]
  residual activity: 91.2%
[22]
  residual activity: 90.9%
[23]
  residual activity: 94.4%
[24]
  residual activity: 97.8%
[25]
  residual activity: 94.5%
[26]
  residual activity: 96.2%
[27]
  residual activity: 100%
[28]
  residual activity: 111%
[29]
  residual activity: 97.8%
[30]
  residual activity: 92.5%
[31]
  residual activity: 93.3%
[32]
  residual activity: 99.9%
[33]
  residual activity: 103%
[34]
  residual activity: 95.5%
[35]
  residual activity: 93.7%
[36]
  residual activity: 82.2%
[37]
  residual activity: 95.3%
[38]
  residual activity: 91.9%
[39]
  residual activity: 102%
[40]
  residual activity: 88.4%
[41]
  residual activity: 91.5%
[42]
  residual activity: 99.2%

## CCN(CC)C(=O)c1ccc(Nc2nc(OCC3CCCCC3)c3nc[nH]c3n2)cc1
[1]
  residual activity: 92%
[2]
  residual activity: 82.5%
[3]
  residual activity: 95.2%
[4]
  residual activity: 103%
[5]
  residual activity: 44.2%
[6]
  residual activity: 61.7%
[7]
  residual activity: 90.9%
[8]
  residual activity: 81.6%
[9]
  residual activity: 109%
[10]
  residual activity: 105%
[11]
  residual activity: 97.6%
[12]
  residual activity: 88.5%
[13]
  residual activity: 90.2%
[14]
  residual activity: 99.9%
[15]
  residual activity: 85%
[16]
  residual activity: 85%
[17]
  residual activity: 92.4%
[18]
  residual activity: 97.3%
[19]
  residual activity: 77.9%
[20]
  residual activity: 40.7%
[21]
  residual activity: 15.2%
[22]
  residual activity: 60.8%
[23]
  residual activity: 99.2%
[24]
  residual activity: 93.8%
[25]
  residual activity: 71.6%
[26]
  residual activity: 85.3%
[27]
  residual activity: 103%
[28]
  residual activity: 132%
[29]
  residual activity: 87.9%
[30]
  residual activity: 81.4%
[31]
  residual activity: 93.8%
[33]
  residual activity: 95.5%
[34]
  residual activity: 86.3%
[35]
  residual activity: 54.9%
[36]
  residual activity: 94.4%
[37]
  residual activity: 61.1%
[38]
  residual activity: 95.4%
[39]
  residual activity: 100%
[40]
  residual activity: 4.96%
[41]
  residual activity: 80.6%
[42]
  residual activity: 94%

## COc1ccc(COc2ccc(Cc3cnc(N)nc3N)cc2OC)cc1
[1]
  residual activity: 102%
[2]
  residual activity: 96.8%
[3]
  residual activity: 98.7%
[4]
  residual activity: 94.7%
[5]
  residual activity: 86.5%
[7]
  residual activity: 97.4%
[8]
  residual activity: 102%
[9]
  residual activity: 99.6%
[10]
  residual activity: 101%
[11]
  residual activity: 108%
[12]
  residual activity: 96.9%
[13]
  residual activity: 85.7%
[14]
  residual activity: 109%
[15]
  residual activity: 90.5%
[16]
  residual activity: 97.8%
[17]
  residual activity: 103%
[18]
  residual activity: 99.9%
[19]
  residual activity: 96.7%
[20]
  residual activity: 106%
[21]
  residual activity: 96.4%
[22]
  residual activity: 106%
[23]
  residual activity: 103%
[24]
  residual activity: 89.7%
[25]
  residual activity: 90.3%
[26]
  residual activity: 76.1%
[27]
  residual activity: 104%
[28]
  residual activity: 103%
[29]
  residual activity: 92.2%
[30]
  residual activity: 51.3%
[31]
  residual activity: 93.4%
[32]
  residual activity: 95.3%
[33]
  residual activity: 94.9%
[35]
  residual activity: 100%
[36]
  residual activity: 97.5%
[37]
  residual activity: 89%
[38]
  residual activity: 101%
[39]
  residual activity: 97%
[40]
  residual activity: 97.6%
[41]
  residual activity: 100%
[42]
  residual activity: 94.3%

## Cc1ccc(Nc2nccc(N(C)c3ccc4c(C)n(C)nc4c3)n2)cc1S(N)(=O)=O
[1]
  residual activity: 107%
[2]
  residual activity: 101%
[3]
  residual activity: 96.2%
[4]
  residual activity: 99.4%
[5]
  residual activity: 91.7%
[6]
  residual activity: 97.1%
[7]
  residual activity: 99.8%
[8]
  residual activity: 105%
[9]
  residual activity: 36.2%
[10]
  residual activity: 93.5%
[11]
  residual activity: 95.9%
[12]
  residual activity: 91%
[13]
  residual activity: 85%
[14]
  residual activity: 94.1%
[15]
  residual activity: 93.8%
[17]
  residual activity: 105%
[18]
  residual activity: 86.9%
[19]
  residual activity: 87%
[20]
  residual activity: 10.9%
[21]
  residual activity: 28.5%
[23]
  residual activity: 99.6%
[24]
  residual activity: 98%
[25]
  residual activity: 57.2%
[27]
  residual activity: 97.8%
[28]
  residual activity: 94.8%
[29]
  residual activity: 91.1%
[30]
  residual activity: 91.8%
[31]
  residual activity: 89.1%
[32]
  residual activity: 98.9%
[33]
  residual activity: 105%
[34]
  residual activity: 9.43%
[35]
  residual activity: 100%
[36]
  residual activity: 160%
[37]
  residual activity: 101%
[38]
  residual activity: 69.3%
[39]
  residual activity: 103%
[40]
  residual activity: 94%
[41]
  residual activity: 98.6%
[42]
  residual activity: 92.6%

## Nc1cccc(-c2cc3c(Oc4cccc(O)c4)ncnc3[nH]2)c1
[1]
  residual activity: 109%
[2]
  residual activity: 86.9%
[3]
  residual activity: 99.3%
[4]
  residual activity: 102%
[5]
  residual activity: 104%
[6]
  residual activity: 92.6%
[7]
  residual activity: 96.5%
[8]
  residual activity: 89.1%
[9]
  residual activity: 29.3%
[10]
  residual activity: 95.2%
[11]
  residual activity: 89.8%
[12]
  residual activity: 7.89%
[13]
  residual activity: 31.2%
[14]
  residual activity: 39.7%
[16]
  residual activity: 48.1%
[17]
  residual activity: 100%
[18]
  residual activity: 90.8%
[19]
  residual activity: 88.1%
[20]
  residual activity: 35.1%
[21]
  residual activity: 79.2%
[22]
  residual activity: 111%
[23]
  residual activity: 108%
[24]
  residual activity: 68.8%
[25]
  residual activity: 63.8%
[26]
  residual activity: 110%
[27]
  residual activity: 103%
[28]
  residual activity: 89.6%
[29]
  residual activity: 91.4%
[30]
  residual activity: 90.5%
[31]
  residual activity: 88%
[32]
  residual activity: 88.9%
[33]
  residual activity: 109%
[34]
  residual activity: 85.9%
[35]
  residual activity: 94.1%
[36]
  residual activity: 96.2%
[37]
  residual activity: 36.1%
[38]
  residual activity: 60.7%
[39]
  residual activity: 101%
[40]
  residual activity: 36.9%
[41]
  residual activity: 88.5%
[42]
  residual activity: 97.5%
